Measurements taken from US20020192314A1, “Dietary supplement compositions” (priority 2001, published 2002).

Tested on: LDL cholesterol
Experiment: LDL cholesterol oxidation lag time, copper ions, absorbance at 234 nm
Format: biochemical, human
Settings: copper ions 5 μmole/L
Method: The antioxidant properties of a dietary supplement can be measured using an assay for LDL cholesterol oxidation. Briefly, blood samples are drawn and LDL cholesterol is isolated. The isolated LDL cholesterol is combined with a dietary supplement to be evaluated, and the time (i.e., lag time) before cholesterol oxidation is observed is measured. Copper ions accelerate the production of conjugated dienes due to oxidation, while antioxidants prolong the onset of diene production. Since dienes absorb light at 234 nm, LDL cholesterol oxidation can be monitored by examining the absorbance at 234 nm as a function of time. Thus, the antioxidant properties of, for example, a dietary supplement or other compound can be evaluated by determining the time elapsed before LDL cholesterol oxidation is observed.
LDL cholesterol oxidation is usually determined by measuring absorbance at 234 nm (AbS234 nm) as a function of time under oxidative conditions. The antioxidant effectiveness of various grape seed extracts was determined. LDL cholesterol was prepared from human volunteer blood samples as described above. Isolated LDL cholesterol was then mixed with a buffer, vitamin E, or grape seed extract. Copper ions (5 μmole/L final concentration) were added to each sample. Grape seed extracts were prepared at 0.5 or 1.0 mg/L final concentration. […]

## Vitamin E
  time LDL cholesterol protected from oxidation: about 125 min
Grape seed extract 0.5 mg/L, vitamin E amount comparable to blood level after 400 IU
  LDL oxidation lag time: 125 min
